Assay results taken from ChEMBL document CHEMBL2406945, “Integrated Synthesis and Testing of Substituted Xanthine Based DPP4 Inhibitors: Application to Drug Discovery” (ACS Med Chem Lett, 2013).

Columns and labels:
[1] = biological target: Dipeptidyl peptidase 4 (Sus scrofa) (UniProt P22411); assay: Inhibition of porcine DPP4 assessed as residual enzyme activity using H-Gly-Pro-AMC as substrate by fluorescence assay
Dipeptidyl peptidase 4 [2] = biological target: T1, Dipeptidyl peptidase 4 (Sus scrofa, UniProt P22411); assay: Inhibition of porcine DPP4
Dipeptidyl peptidase 4 [3] = biological target: T1, Dipeptidyl peptidase 4; assay: Inhibition of porcine DPP4 using H-Gly-Pro-AMC as substrate by fluorescence assay
Dipeptidyl peptidase 4 [4] = biological target: Dipeptidyl peptidase 4 (Homo sapiens, UniProt P27487); assay: Inhibition of human DPP4 using H-Gly-Pro-AMC as substrate by fluorescence assay
Sequence of Dipeptidyl peptidase 4 (Homo sapiens, UniProt P27487) (P27487 whole entry): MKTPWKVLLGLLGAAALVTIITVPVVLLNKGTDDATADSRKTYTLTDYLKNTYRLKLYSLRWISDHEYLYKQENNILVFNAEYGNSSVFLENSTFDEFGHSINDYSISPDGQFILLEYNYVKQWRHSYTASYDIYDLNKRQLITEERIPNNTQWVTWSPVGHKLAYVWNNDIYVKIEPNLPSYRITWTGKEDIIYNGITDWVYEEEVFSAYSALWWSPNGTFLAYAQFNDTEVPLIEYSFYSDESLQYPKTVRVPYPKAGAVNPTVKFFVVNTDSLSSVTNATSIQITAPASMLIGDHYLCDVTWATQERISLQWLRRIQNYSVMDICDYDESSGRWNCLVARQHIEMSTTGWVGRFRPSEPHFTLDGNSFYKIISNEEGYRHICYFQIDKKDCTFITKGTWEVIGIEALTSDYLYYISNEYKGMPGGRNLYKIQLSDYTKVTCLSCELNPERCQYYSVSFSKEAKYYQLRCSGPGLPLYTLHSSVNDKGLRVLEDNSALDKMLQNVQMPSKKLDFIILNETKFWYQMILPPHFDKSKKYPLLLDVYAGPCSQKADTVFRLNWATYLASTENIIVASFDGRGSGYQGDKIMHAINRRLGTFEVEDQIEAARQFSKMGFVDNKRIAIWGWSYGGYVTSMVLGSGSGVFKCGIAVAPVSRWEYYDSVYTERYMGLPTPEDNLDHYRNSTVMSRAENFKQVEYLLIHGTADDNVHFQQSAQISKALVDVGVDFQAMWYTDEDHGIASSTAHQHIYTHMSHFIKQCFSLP

T1 sequence (P22411 whole entry): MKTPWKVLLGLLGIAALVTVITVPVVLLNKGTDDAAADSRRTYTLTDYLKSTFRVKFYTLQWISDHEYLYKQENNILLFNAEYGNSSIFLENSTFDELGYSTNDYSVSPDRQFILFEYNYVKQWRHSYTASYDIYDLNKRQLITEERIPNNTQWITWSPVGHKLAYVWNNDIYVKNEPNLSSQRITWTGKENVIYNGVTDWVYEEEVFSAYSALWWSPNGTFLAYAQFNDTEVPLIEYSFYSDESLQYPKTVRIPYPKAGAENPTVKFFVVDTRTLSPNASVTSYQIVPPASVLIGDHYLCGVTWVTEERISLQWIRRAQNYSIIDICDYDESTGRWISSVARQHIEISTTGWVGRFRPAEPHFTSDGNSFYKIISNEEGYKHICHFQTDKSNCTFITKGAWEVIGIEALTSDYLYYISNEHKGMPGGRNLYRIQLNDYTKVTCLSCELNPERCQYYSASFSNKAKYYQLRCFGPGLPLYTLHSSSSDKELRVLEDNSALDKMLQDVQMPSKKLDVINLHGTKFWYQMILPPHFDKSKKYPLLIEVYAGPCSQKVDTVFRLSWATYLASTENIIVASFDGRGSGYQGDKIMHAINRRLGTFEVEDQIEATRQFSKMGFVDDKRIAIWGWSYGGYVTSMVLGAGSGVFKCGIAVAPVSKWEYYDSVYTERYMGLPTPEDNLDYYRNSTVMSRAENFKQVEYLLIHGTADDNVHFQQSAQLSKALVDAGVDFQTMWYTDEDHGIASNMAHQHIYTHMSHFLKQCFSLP
Sequence of Dipeptidyl peptidase 4 (Sus scrofa) (P22411 whole entry, looked up): as the sequence (P22411 whole entry) above

Row | SMILES | Activity [1] | IC50 (Dipeptidyl peptidase 4 [2]) | IC50 (Dipeptidyl peptidase 4 [3]) | IC50 (Dipeptidyl peptidase 4 [4])
1 | CC(C)=CCn1c(OCC(C)(C)CN)nc2c1c(=O)n(CC(=O)c1ccccc1)c(=O)n2C | 6 nM | 9 nM | 6.5 nM | –
2 | CC(C)=CCn1c(OC[C@H]2CCCN2)nc2c1c(=O)n(C)c(=O)n2C | > 7000 nM | – | – | –
3 | CC(C)=CCn1c(N2CC3CCCNC3C2)nc2c1c(=O)n(C)c(=O)n2C (configuration not stated) | > 24500 nM | – | – | –
4 | CC(C)=CCn1c(N2CC3CCNC3C2)nc2c1c(=O)n(C)c(=O)n2C (configuration not stated) | 6000 nM | – | – | –
5 | CC(C)=CCn1c(OC[C@H]2CCCN2)nc2c1c(=O)n(CC(=O)c1ccccc1)c(=O)n2C | 580 nM | 2500 nM | 705 nM | –
6 | CC(C)=CCn1c(OCCCN)nc2c1c(=O)n(CC(=O)c1ccccc1)c(=O)n2C | 22 nM | – | – | –
7 | CC(C)=CCn1c(N2CC3CCCNC3C2)nc2c1c(=O)n(CC(=O)c1ccccc1)c(=O)n2C (configuration not stated) | 269 nM | – | – | –
8 | CC(C)=CCn1c(OC[C@@H]2CCCN2)nc2c1c(=O)n(CC(=O)c1ccccc1)c(=O)n2C | 2.6 nM | 17 nM | 16 nM | –
9 | CC(C)=CCn1c(OC[C@@H](N)Cc2ccccc2)nc2c1c(=O)n(C)c(=O)n2C | 430 nM | – | – | –
10 | CC(C)=CCn1c(O[C@@H](C)CN)nc2c1c(=O)n(CC(=O)c1ccccc1)c(=O)n2C | 420 nM | – | – | –
11 | CC(C)=CCn1c(N2CCC[C@H](N)C2)nc2c1c(=O)n(CC(=O)c1ccccc1)c(=O)n2C | 4 nM | – | – | –
12 | CC(C)=CCn1c(N2CCNCC2)nc2c1c(=O)n(C)c(=O)n2C | 173 nM | – | – | –
13 | CC(C)=CCn1c(O[C@@H]2CCNC2)nc2c1c(=O)n(C)c(=O)n2C | > 7000 nM | – | – | –
14 | CC(C)=CCn1c(OCC(C)(C)CN)nc2c1c(=O)n(C)c(=O)n2C | 260 nM | – | – | –
15 | CC(C)=CCn1c(OC[C@H](C)N)nc2c1c(=O)n(C)c(=O)n2C | 780 nM | – | – | –
16 | CC(C)=CCn1c(N2CCC[C@@H](N)C2)nc2c1c(=O)n(C)c(=O)n2C | 11 nM | – | – | –
17 | CC(C)=CCn1c(OC2CCNCC2)nc2c1c(=O)n(C)c(=O)n2C | > 5000 nM | – | – | –
18 | CC(C)=CCn1c(N2CCNCC2)nc2c1c(=O)n(CC(=O)c1ccccc1)c(=O)n2C | 11 nM | – | – | –
19 | CC(C)=CCn1c(N2CCC[C@@H](N)C2)nc2c1c(=O)n(CC(=O)c1ccccc1)c(=O)n2C | 0.7 nM | < 40 nM | 0.73 nM | –
20 | CC(C)=CCn1c(O[C@H]2CCNC2)nc2c1c(=O)n(C)c(=O)n2C | > 8000 nM | – | – | –
21 | CC(C)=CCn1c(N2CCC3CNCC32)nc2c1c(=O)n(C)c(=O)n2C (configuration not stated) | 132 nM | 210 nM | 130 nM | –
22 | CC(C)=CCn1c(OC[C@@H]2CCCN2)nc2c1c(=O)n(C)c(=O)n2C | 1600 nM | – | – | –
23 | CC(C)=CCn1c(OC2CCNCC2)nc2c1c(=O)n(CC(=O)c1ccccc1)c(=O)n2C | 275 nM | 1100 nM | 275 nM | > 1000 nM
24 | CC(C)=CCn1c(N2CCC[C@H](N)C2)nc2c1c(=O)n(C)c(=O)n2C | 6 nM | – | – | –
